Format in all cases: cell-based, human
The subject of data set [1] is HUVECs. Description: Metabolic labeling of HUVECs with azide groups, detection with DBCO-Sulfo-Cy3 by flow cytometry. The settings on record: 50 μM Ac4ManNAz 48 h, then 5 μM DBCO-Sulfo-Cy3 1 h. As for the experimental part: To functionalize the cell surface of HUVECs with azide groups, 2×10^5 HUVECs per well of a 6-well plate were seeded and treated with or without 50 μM N-azidoacetylmannosamine-tetraacylated (Ac4ManNAz, Sigma Aldrich) in 2 ml medium for 48 h at 37° C. with 5% CO2. To detect the formed azido groups, the cells were washed with DPBS without Ca^2+/Mg^2+ and incubated with 5 μM DBCO-Sulfo-Cy3 (Jena Bioscience, Germany) in DPBS with Ca^2+/Mg^2+ for 1 h at 37° C. and 5% CO2. Cells were washed three times with 10 ml DPBS, detached with trypsin/EDTA (0.04%/0.03%) and centrifuged at 300×g for 5 min. The cell pellet was resuspended in 0.5 ml DPBS, and Cy3 labeling of 10,000 cells was analyzed by flow cytometry (FACS SCAN, BD, Heidelberg, Germany). In addition to the flow cytometric analyses, cells were stained for 30 minutes with ActinGreen™ 488 ReadyP-robes® reagent (Invitrogen) for the cytoskeleton and for 5 minutes with 0.2 μg/ml DAPI (Sigma Aldrich) to visualize the nuclei.
(A flow cytometer gives signals particle by particle.)

For data set [2], the system named is HUVECs. The data set is described as follows: PrestoBlue cell viability assay after metabolic labeling. To be noted: 50 μM Ac4ManNAz 48 h. How it is done: The influence of metabolic labeling on the viability of HUVECs was investigated 48 hours after labeling with 50 µM Ac4ManNAz using the PrestoBlue assay (Invitrogen, Carlsbad, USA). For this purpose, 500 μL of 1× Presto Blue cell viability reagent was added to each well of a 6-well plate and incubated for 1.5 h at 37° C. The fluorescence intensity of 100 μL supernatant was measured in triplicate at an excitation wavelength of 530 nm and an emission wavelength of 600 nm using a multimode microplate reader (Mithras LB 940, Berthold Technologies, Bad Wildbad, Germany).

Data set [3] concerns endothelial layer on HFMs. The data set is described as follows: Reactivity of the endothelial layer on HFMs to an inflammatory stimulus (qRT-PCR of adhesion molecules). To be noted: 50 ng/mL TNF-α, 4 hours, mRNA normalized to GAPDH. How it is done: Endothelialized HFMs were incubated for 4 hours without or with 50 ng/mL tumor necrosis factor α (TNF-α, Sigma-Aldrich) in EGM™-2 endothelial cell growth medium without hydrocortisone. After incubation, HFMs were washed twice with DPBS and total RNA was isolated. Expression of the activation markers, endothelial leukocyte adhesion molecule 1 (E-selectin), vascular cell adhesion molecule 1 (VCAM-1) and intercellular adhesion molecule 1 (ICAM-1), was detected by qRT-PCR.
After 40 cycles, melting was performed.
Background: Real-time PCR tracks product formation cycle by cycle.

With `CC(=O)OC[C@H]1OC(OC(C)=O)[C@@H](NC(=O)CN=[N+]=[N-])[C@@H](OC(C)=O)[C@@H]1OC(C)=O` (some centres unmarked) [Ac4ManNAz, N-azidoacetylmannosamine-tetraacylated], the “Cy3-positive cells (N3 groups on the cell surface)” value in data set [1] is reported as “about 98%”. The “effect on viability of HUVECs” value in data set [2] was “no effect”.

tumor necrosis factor α [TNF-α]: in data set [3], the “E-selectin expression compared to non-stimulated endothelial layer” value is given as 199 fold, the “ICAM-1 expression compared to non-stimulated endothelial layer” value turned out to be 162 fold and the “VCAM-1 expression compared to non-stimulated endothelial layer” value worked out at 328 fold.

The record behind these values is US20240271104A1, “COLONIZATION OF SURFACES WITH BIOLOGICAL CELLS” (Eberhard Karls Universität Tübingen Medizinische Fakultät, priority 2021, published 2024).
